# ± gives the expanded uncertainty stated by the source.
# Tests used:
# [1] = 100 kPa, Liquid; for speed of sound: Frequency=3 MHz, Sing-around technique in a fixed-path interferometer; for mass density: Vibrating tube method
# [2] = refractive index (Na D-line) (dimensionless); conditions: 100 kPa, Liquid, Standard Abbe refractometry
# [3] = refractive index (Na D-line) (dimensionless); xn = mol fraction of the nth substance listed; conditions: 100 kPa, Liquid, Standard Abbe refractometry, x2 = 0
# [4] = xn = mol fraction of the nth substance listed; conditions: 100 kPa, Liquid, x2 = 0; for speed of sound: Frequency=3 MHz, Sing-around technique in a fixed-path interferometer; for mass density: Vibrating tube method
SMILES,speed of sound ([1]; 298.15 K) [m/s],mass density ([1]; 298.15 K) [kg/m3],speed of sound ([1]; 308.15 K) [m/s],mass density ([1]; 308.15 K) [kg/m3],speed of sound ([1]; 318.15 K) [m/s],mass density ([1]; 318.15 K) [kg/m3],refractive index ([2]; 298.15 K),refractive index ([2]; 308.15 K),refractive index ([2]; 318.15 K),refractive index ([3]; 298.15 K),refractive index ([3]; 308.15 K),refractive index ([3]; 318.15 K),speed of sound ([4]; 298.15 K) [m/s],mass density ([4]; 298.15 K) [kg/m3],speed of sound ([4]; 308.15 K) [m/s],mass density ([4]; 308.15 K) [kg/m3],speed of sound ([4]; 318.15 K) [m/s],mass density ([4]; 318.15 K) [kg/m3]
CCCCCCCC[n+]1ccn(C)c1.F[B-](F)(F)F [1-methyl-3-octylimidazolium tetrafluoroborate],1485.1 ± 2.3,1105.02 ± 1.1,1458.5 ± 2.3,1098.32 ± 1,1433.2 ± 2.3,1091.54 ± 1,1.43253 ± 0.0017,1.42984 ± 0.0017,1.42715 ± 0.0017,–,–,–,–,–,–,–,–,–
CC(C)CO [2-methyl-1-propanol],1189 ± 1.4,797.82 ± 0.22,1155.9 ± 1.3,790.63 ± 0.23,1118.6 ± 1.3,781.98 ± 0.23,1.39408 ± 0.0016,1.38925 ± 0.0016,1.38444 ± 0.0016,–,–,–,–,–,–,–,–,–
CC(C)CO [2-methyl-1-propanol] + CCCCCCCC[n+]1ccn(C)c1.F[B-](F)(F)F,–,–,–,–,–,–,–,–,–,1.39408 ± 0.0016,1.38925 ± 0.0016,1.38444 ± 0.0016,1189 ± 1.4,797.82 ± 0.22,1155.9 ± 1.3,790.63 ± 0.23,1118.6 ± 1.3,781.98 ± 0.23
CC(C)(C)O [2-methylpropan-2-ol],1121.4 ± 1.3,780.72 ± 0.23,1082 ± 1.3,770.21 ± 0.23,1038.2 ± 1.3,759.5 ± 0.23,1.38488 ± 0.0016,1.37985 ± 0.0016,1.37402 ± 0.0016,–,–,–,–,–,–,–,–,–
CC(C)(C)O [2-methylpropan-2-ol] + CCCCCCCC[n+]1ccn(C)c1.F[B-](F)(F)F,–,–,–,–,–,–,–,–,–,1.38488 ± 0.0016,1.37985 ± 0.0016,1.37402 ± 0.0016,1121.4 ± 1.3,780.72 ± 0.23,1082 ± 1.3,770.21 ± 0.23,1038.2 ± 1.3,759.5 ± 0.23
CCCCO [butan-1-ol],1242.4 ± 1.2,805.76 ± 0.2,1207.5 ± 1.2,798.05 ± 0.2,1171.5 ± 1.2,790.21 ± 0.2,1.39728 ± 0.0016,1.39324 ± 0.0016,1.38911 ± 0.0016,–,–,–,–,–,–,–,–,–
CCCCO [butan-1-ol] + CCCCCCCC[n+]1ccn(C)c1.F[B-](F)(F)F,–,–,–,–,–,–,–,–,–,1.39728 ± 0.0016,1.39324 ± 0.0016,1.38911 ± 0.0016,1242.4 ± 1.2,805.76 ± 0.2,1207.5 ± 1.2,798.05 ± 0.2,1171.5 ± 1.2,790.21 ± 0.2
